Results: patent US20040058914A1, “Combination drugs” (priority 2000, published 2004)

How the values were obtained:
[1] = tested on: cyclophosphamide-induced pollakiuria rats; test: bladder capacity of cyclophosphamide-induced pollakiuria rats under urethane anesthesia (Experimental Example 2, NK-1 antagonist + anti-cholinergic drug); settings: for bladder capacity Before administration: cyclophosphamide 200 mg/kg i.p. the day before, baseline before i.v. drug; for bladder capacity Before administration / bladder capacity (%) increase / bladder capacity After administration: Compound No. 3 0.3 mg/kg, oxybutynin chloride 1 mg/kg, mean ± standard error of 5-7 animals; for bladder capacity (%) increase / bladder capacity After administration: cyclophosphamide 200 mg/kg i.p., 10 min. after i.v. administration; for effect on bladder capacity (in words): cyclophosphamide-treated animals, i.v., sole vs combined administration at the doses of Table 2
[2] = tested on: cyclophosphamide-induced pollakiuria rats; test: bladder capacity of cyclophosphamide-induced pollakiuria rats under urethane anesthesia (Experimental Example 1, NK-1 + NK-2 antagonist); format: in vivo; settings: for bladder capacity Before administration: cyclophosphamide 200 mg/kg i.p. the day before, baseline before i.v. drug; for bladder capacity Before administration / bladder capacity (%) increase / bladder capacity After administration: Compound No. 3 0.3 mg/kg, SR48968 10 mg/kg, mean ± standard error of 5-7 animals; for bladder capacity (%) increase / bladder capacity After administration: cyclophosphamide 200 mg/kg i.p., 10 min. after i.v. administration; for effect on bladder capacity (in words): cyclophosphamide-treated animals, i.v., sole vs combined administration at the doses of Table 1
Description: The effect afforded by the combined use of compound No. 3 and (±)SR48968 hydrochloride on the suppressive action on pollakiuria and urinary incontinence was shown by the ability to increase bladder capacity of cyclophosphamide-induced pollakiuria rats under a urethane anesthesia. Cyclophosphamide (200 mg/kg) or a solvent was intraperitoneally administered and the rats were subjected to the bladder capacity test the next day. […] The changes in the bladder capacity at 10 min. after administration were measured.
The data are expressed in mean±standard error.

Compound	bladder capacity Before administration [1] [mL]	bladder capacity (%) increase [1] [%]	bladder capacity After administration [1] [mL]	effect on bladder capacity (in words) [1]	bladder capacity Before administration [2] [mL]	bladder capacity (%) increase [2] [%]	bladder capacity After administration [2] [mL]	effect on bladder capacity (in words) [2]
CCN(CC)CC#CCOC(=O)C(O)(c1ccccc1)C1CCCCC1 (stereo not shown) [oxybutynin chloride]	0.76 ± 0.13	6.9 ± 12.4	0.78 ± 0.12	does not increase the bladder capacity	–	–	–	–
Cc1ccc(-c2c3n(c(=O)c4ncccc24)CC[C@@H](C)CN(Cc2cc(C(F)(F)F)cc(C(F)(F)F)c2)C3=O)cc1 [Compound No. 3, (9R)-7-[3,5-bis(trifluoromethyl)benzyl]-6,7,8,9,10,11-hexahydro-9-methyl-5-(4-methylphenyl)-6,13-dioxo-13H-[1,4]diazocino[2,1-g][1,7]naphthyridine]	0.66 ± 0.08	28.6 ± 12.4	0.80 ± 0.09	does not increase the bladder capacity	1.06 ± 0.14	−0.28 ± 5.3	1.05 ± 0.14	does not increase the bladder capacity
CC(=O)NC1(c2ccccc2)CCN(CC[C@H](CN(C)C(=O)c2ccccc2)c2ccc(Cl)c(Cl)c2)CC1 (racemic) [SR48968]	–	–	–	–	0.99 ± 0.08	3.8 ± 3.3	1.03 ± 0.09	does not increase the bladder capacity
